Values after ≈ are worked out from the molar mass of the structure shown. Active and inactive are the calls of the source. The calls are words filed in the database; no cut-off is given here.
Key:
[1] = Total AUC in rat at 10 mg/kg; format: ADME, organism-based; design: time AUCmax, dose 10 mg/kg; conditions: in vivo
Mus musculus [2] = experiment: Reduction in triglycerides level in mouse at 0.3 mg/kg, po after 2 hrs by postprandial triglyceride assay; format: functional
Cytochrome P450 2C9 = Cytochrome P450 2C9 (Homo sapiens, UniProt P11712); experiment: Inhibition of CYP2C9 (unknown origin)
[3] = biological target: T1, Diacylglycerol O-acyltransferase 1 (Mus musculus, UniProt Q9Z2A7); experiment: Inhibition of mouse DGAT1 expressed in Sf9 insect cells using 1,2-dioleoyl-sn-glycerol and [14C]-palmitoyl-CoA substrate by scintillation counting analysis
T1 sequence (Q9Z2A7 whole entry): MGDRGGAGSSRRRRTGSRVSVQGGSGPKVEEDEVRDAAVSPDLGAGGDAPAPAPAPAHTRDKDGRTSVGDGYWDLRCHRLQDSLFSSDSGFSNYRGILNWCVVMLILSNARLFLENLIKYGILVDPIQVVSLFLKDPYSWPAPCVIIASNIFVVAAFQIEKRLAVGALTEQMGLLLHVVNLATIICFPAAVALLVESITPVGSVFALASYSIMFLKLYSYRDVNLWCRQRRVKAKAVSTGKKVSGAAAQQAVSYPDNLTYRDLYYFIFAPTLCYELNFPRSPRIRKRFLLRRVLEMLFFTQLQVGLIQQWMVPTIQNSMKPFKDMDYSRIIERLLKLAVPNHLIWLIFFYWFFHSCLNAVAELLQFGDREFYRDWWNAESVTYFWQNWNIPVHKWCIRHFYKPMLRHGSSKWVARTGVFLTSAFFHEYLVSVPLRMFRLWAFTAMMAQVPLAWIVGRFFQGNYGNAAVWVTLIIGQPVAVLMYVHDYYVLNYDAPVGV

Mus musculus [4] = experiment: Reduction in triglycerides level in mouse at 1 mg/kg, po after 2 hrs by postprandial triglyceride assay; format: functional
[5] = Plasma protein binding in human; format: ADME, cell-free; conditions: read-out: PPB
Mus musculus [6] = experiment: Induction of weight loss in diet-induced obese C57BL/6J mouse assessed as reduction in food intake at 30 mg/kg, po qd measured during 1 to 4 days; format: functional, organism-based; design: dose 30 mg/kg
[7] = Inhibition of histamine receptor (unknown origin); design: species or system Homo sapiens
[8] = AUC in mouse at 1 mg/kg, po; format: ADME, organism-based; design: dose 1 mg/kg, route oral; conditions: plasma
[9] = AUC in rat at 10 mg/kg, po; format: ADME, organism-based; design: dose 10 mg/kg, route oral; conditions: plasma
[10] = Clearance in rat liver hepatocytes measured per million cells; format: ADME, cell-based, Hepatocyte; conditions: read-out: CLH
[11] = Cmax in dog at 2 mg/kg, po; format: ADME, organism-based, Canis lupus familiaris; design: dose 2 mg/kg, route oral; conditions: in vivo
Prostacyclin receptor = Prostacyclin receptor (Homo sapiens, UniProt P43119); experiment: Inhibition of prostanoid IP receptor (unknown origin)
[12] = Clearance in mouse liver hepatocytes measured per million cells; format: ADME, Hepatocyte; conditions: read-out: CLH
Mus musculus [13] = experiment: Reduction in triglycerides level in mouse at 3 mg/kg, po after 12 hrs by postprandial triglyceride assay; format: functional
[14] = Inhibition of CCK receptor (unknown origin); design: species or system Homo sapiens
[15] = Plasma protein binding in mouse; format: ADME; conditions: read-out: PPB
[16] = Clearance in monkey liver hepatocytes measured per million cells; format: ADME, Macaca mulatta, Hepatocyte; conditions: rhesus monkey, read-out: CLH
Mus musculus [17] = experiment: Reduction in triglycerides level in mouse at 3 mg/kg, po after 2 hrs by postprandial triglyceride assay; format: functional
Mus musculus [18] = experiment: Induction of weight loss in diet-induced obese C57BL/6J mouse assessed as decrease in body weight at 30 mg/kg, po qd measured during 11 day chronic study; format: functional; conditions: 264 h
[19] = Half life in mouse at 1 mg/kg, po; format: ADME, organism-based; design: dose 1 mg/kg, route oral; conditions: in vivo
[20] = Inhibition of serotonin receptor (unknown origin); design: species or system Homo sapiens
[21] = Cmax in monkey at 3 mg/kg, po; format: ADME, organism-based, Macaca mulatta; design: dose 3 mg/kg, route oral; conditions: rhesus monkey, in vivo
Caspase-9 = biological target: T2, Caspase-9 (Homo sapiens, UniProt P55211); experiment: Inhibition of CASP9 (unknown origin)
T2 sequence (P55211 whole entry): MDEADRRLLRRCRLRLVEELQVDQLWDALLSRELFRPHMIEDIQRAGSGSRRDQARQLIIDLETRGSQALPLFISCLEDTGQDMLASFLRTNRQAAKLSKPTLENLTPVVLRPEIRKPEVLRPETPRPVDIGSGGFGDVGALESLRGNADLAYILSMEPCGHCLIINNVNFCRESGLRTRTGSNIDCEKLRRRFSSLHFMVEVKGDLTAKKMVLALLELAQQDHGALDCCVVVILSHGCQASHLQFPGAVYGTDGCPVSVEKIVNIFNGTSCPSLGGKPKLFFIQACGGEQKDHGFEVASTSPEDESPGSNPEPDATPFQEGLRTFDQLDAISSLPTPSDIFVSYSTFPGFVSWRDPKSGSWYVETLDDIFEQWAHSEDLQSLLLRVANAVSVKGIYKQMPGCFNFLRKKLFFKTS

[22] = Oral bioavailability in mouse at 1 mg/kg; format: ADME, organism-based; conditions: in vivo
[23] = Half life in rat at 10 mg/kg, po; format: ADME, organism-based; design: dose 10 mg/kg, route oral; conditions: in vivo
Hepatocyte = experiment: Clearance in human liver hepatocytes measured per million cells; format: ADME, cell-based
[24] = Inhibition of purinergic receptor (unknown origin); design: species or system Homo sapiens
D(2) dopamine receptor = D(2) dopamine receptor (Homo sapiens, UniProt P14416); experiment: Inhibition of D2 receptor (unknown origin)
Cannabinoid receptor 1 = Cannabinoid receptor 1 (Homo sapiens, UniProt P21554); experiment: Inhibition of CB1 receptor (unknown origin)
[25] = Half life in monkey at 3 mg/kg, po; format: ADME, organism-based, Macaca mulatta; design: dose 3 mg/kg, route oral; conditions: rhesus monkey, in vivo
[26] = biological target: T3, Diacylglycerol O-acyltransferase 1 (Homo sapiens, UniProt O75907); experiment: Inhibition of human DGAT1 expressed in Sf9 insect cells using 1,2-dioleoyl-sn-glycerol and [14C]-palmitoyl-CoA substrate by scintillation counting analysis
T3 sequence (O75907 whole entry): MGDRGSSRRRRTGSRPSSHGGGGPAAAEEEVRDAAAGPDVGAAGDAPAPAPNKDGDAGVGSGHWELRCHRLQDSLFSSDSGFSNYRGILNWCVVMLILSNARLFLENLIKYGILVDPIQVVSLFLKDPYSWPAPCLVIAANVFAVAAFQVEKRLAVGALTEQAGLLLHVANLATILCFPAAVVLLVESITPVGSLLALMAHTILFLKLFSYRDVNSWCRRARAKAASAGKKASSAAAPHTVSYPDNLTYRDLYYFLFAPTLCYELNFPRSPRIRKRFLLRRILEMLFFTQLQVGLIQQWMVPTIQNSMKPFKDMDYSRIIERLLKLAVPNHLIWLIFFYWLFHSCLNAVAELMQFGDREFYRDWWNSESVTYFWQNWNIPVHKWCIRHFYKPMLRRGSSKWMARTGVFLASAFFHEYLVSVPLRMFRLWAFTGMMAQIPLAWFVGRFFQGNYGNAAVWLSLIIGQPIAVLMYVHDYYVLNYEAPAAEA

Insulin receptor = Insulin receptor (Homo sapiens, UniProt P06213); experiment: Inhibition of insulin receptor (unknown origin)
[27] = Oral bioavailability in rat at 10 mg/kg; format: ADME, organism-based; conditions: in vivo
[28] = Cmax in rat at 10 mg/kg, po; format: ADME, organism-based; design: dose 10 mg/kg, route oral; conditions: in vivo
Caspase-8 = Caspase-8 (Homo sapiens, UniProt Q14790); experiment: Inhibition of CASP8 (unknown origin)
[29] = AUC in dog at 2 mg/kg, po; format: ADME, organism-based, Canis lupus familiaris; design: dose 2 mg/kg, route oral; conditions: plasma
[30] = Clearance in dog liver hepatocytes measured per million cells; format: ADME, Canis lupus familiaris, Hepatocyte; conditions: read-out: CLH
[31] = AUC in monkey at 3 mg/kg, po; format: ADME, organism-based, Macaca mulatta; design: dose 3 mg/kg, route oral; conditions: rhesus monkey, plasma
[32] = Half life in dog at 2 mg/kg, po; format: ADME, organism-based, Canis lupus familiaris; design: dose 2 mg/kg, route oral; conditions: in vivo
[33] = biological target: Epidermal growth factor receptor (Homo sapiens, UniProt P00533); experiment: Inhibition of EGF receptor (unknown origin)
[34] = Solubility in plasma (unknown origin) at pH 7; format: ADME, cell-free
[35] = Permeability in human Caco2 cells; format: ADME, cell-based; conditions: Caco-2, read-out: permeability
[36] = Cmax in mouse at 1 mg/kg, po; format: ADME, organism-based; design: dose 1 mg/kg, route oral; conditions: in vivo
[37] = Inhibition of neuropeptide Y receptor (unknown origin); design: species or system Homo sapiens
[38] = biological target: T4, Diacylglycerol O-acyltransferase 2 (Homo sapiens) (UniProt Q96PD7); experiment: Inhibition of human DGAT2 expressed in Sf9 insect cells using 1,2-dioleoyl-sn-glycerol and [14C]-palmitoyl-CoA substrate by scintillation counting analysis
T4 sequence (whole entry): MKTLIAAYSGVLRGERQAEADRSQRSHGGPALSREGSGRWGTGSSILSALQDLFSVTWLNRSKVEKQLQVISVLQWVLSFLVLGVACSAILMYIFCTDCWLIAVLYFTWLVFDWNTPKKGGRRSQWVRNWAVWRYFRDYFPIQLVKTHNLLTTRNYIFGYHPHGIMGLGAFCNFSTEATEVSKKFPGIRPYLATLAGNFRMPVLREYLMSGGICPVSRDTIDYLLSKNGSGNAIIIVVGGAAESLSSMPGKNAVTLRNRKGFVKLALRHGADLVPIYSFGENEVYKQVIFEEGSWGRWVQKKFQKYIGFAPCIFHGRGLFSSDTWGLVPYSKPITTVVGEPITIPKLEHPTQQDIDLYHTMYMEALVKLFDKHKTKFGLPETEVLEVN

Mus musculus [39] = experiment: Reduction in triglycerides level in mouse at 10 mg/kg, po after 2 hrs by postprandial triglyceride assay; format: functional
[40] = AUC in rat at 10 mg/kg; format: ADME, organism-based; design: dose 10 mg/kg; conditions: plasma
[41] = biological target: T5, Sterol O-acyltransferase 2 (Homo sapiens, UniProt O75908); experiment: Inhibition of human ACAT2 expressed in Sf9 insect cells using [14C]-oleoyl-CoA by scintillation counting analysis
T5 sequence (O75908 whole entry): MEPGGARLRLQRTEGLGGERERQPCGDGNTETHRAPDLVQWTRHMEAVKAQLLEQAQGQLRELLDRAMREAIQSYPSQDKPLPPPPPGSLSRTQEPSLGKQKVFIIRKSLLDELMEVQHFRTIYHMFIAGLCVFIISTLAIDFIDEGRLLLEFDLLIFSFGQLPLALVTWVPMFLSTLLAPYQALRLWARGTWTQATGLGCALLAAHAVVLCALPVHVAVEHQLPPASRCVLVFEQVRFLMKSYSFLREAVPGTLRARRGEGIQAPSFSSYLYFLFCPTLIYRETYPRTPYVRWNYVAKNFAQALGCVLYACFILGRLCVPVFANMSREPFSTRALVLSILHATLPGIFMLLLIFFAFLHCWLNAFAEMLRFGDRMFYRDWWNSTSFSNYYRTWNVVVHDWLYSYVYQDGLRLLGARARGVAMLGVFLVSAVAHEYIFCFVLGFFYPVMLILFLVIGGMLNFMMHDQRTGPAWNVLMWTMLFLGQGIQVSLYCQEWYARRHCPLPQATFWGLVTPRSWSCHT

[42] = Solubility of the compound; format: physicochemical

D(2) dopamine receptor, sequence (P14416 whole entry): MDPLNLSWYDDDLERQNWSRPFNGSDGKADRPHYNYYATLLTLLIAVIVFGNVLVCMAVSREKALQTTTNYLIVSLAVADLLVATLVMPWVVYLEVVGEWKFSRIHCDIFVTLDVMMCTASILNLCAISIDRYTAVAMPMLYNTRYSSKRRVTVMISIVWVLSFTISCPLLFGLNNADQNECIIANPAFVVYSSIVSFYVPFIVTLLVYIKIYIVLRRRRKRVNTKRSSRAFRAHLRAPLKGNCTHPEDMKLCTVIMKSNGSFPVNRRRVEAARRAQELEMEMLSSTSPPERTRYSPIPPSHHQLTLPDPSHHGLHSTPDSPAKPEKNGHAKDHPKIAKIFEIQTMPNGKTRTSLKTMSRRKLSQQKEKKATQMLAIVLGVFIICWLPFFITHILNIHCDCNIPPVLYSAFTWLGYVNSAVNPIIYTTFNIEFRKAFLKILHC
Prostacyclin receptor, sequence (P43119 whole entry): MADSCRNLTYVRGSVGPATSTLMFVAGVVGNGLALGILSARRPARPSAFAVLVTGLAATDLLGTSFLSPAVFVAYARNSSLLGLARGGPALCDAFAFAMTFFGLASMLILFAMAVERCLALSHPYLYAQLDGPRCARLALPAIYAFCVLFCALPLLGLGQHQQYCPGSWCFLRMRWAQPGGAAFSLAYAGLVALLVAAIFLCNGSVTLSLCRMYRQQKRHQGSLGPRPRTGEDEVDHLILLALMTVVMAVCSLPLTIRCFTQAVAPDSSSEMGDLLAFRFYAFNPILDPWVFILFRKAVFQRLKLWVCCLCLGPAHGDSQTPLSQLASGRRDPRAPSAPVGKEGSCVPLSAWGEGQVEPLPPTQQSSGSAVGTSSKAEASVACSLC
Cannabinoid receptor 1, sequence (P21554 whole entry): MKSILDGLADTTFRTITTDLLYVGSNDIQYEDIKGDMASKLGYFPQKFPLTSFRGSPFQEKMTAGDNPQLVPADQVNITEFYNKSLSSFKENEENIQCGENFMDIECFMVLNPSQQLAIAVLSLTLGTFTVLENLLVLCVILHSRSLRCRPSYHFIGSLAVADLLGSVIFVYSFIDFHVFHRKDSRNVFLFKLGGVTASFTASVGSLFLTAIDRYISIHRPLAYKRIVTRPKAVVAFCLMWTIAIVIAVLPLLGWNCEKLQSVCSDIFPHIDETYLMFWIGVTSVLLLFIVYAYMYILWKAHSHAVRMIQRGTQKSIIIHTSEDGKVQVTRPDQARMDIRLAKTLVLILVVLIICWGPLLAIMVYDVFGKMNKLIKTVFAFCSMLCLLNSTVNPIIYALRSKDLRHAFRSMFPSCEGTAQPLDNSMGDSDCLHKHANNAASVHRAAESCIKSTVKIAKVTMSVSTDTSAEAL
Caspase-8, sequence (Q14790 217-374 limits assumed): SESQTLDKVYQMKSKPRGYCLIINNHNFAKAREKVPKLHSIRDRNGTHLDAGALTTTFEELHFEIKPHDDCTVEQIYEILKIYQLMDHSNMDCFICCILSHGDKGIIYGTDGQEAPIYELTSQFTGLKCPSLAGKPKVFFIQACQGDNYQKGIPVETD
Caspase-8, sequence (Q14790 385-479 limits assumed): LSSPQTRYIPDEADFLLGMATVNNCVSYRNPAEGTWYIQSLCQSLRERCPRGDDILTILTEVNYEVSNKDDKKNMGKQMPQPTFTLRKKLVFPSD
Insulin receptor, sequence (P06213 28-758 limits assumed): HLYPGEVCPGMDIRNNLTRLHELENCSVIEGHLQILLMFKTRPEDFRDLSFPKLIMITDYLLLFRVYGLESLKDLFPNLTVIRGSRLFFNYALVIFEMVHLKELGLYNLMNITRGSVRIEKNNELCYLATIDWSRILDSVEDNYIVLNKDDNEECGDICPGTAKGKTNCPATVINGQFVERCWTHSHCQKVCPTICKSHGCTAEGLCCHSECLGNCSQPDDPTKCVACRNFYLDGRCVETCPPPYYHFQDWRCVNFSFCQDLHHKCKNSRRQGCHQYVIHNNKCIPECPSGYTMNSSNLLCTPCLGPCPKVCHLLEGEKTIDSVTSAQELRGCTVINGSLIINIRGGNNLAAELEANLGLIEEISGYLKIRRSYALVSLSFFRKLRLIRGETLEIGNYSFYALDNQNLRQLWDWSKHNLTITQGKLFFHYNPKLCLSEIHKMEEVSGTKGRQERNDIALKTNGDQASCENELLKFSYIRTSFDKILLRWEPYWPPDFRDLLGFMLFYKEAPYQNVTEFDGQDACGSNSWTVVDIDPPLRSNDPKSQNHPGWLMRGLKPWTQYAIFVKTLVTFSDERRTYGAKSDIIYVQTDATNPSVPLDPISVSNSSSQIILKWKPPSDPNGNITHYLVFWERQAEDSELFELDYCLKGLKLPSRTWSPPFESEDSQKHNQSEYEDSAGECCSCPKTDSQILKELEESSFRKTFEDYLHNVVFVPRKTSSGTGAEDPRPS
Insulin receptor, sequence (P06213 763-1382 limits assumed): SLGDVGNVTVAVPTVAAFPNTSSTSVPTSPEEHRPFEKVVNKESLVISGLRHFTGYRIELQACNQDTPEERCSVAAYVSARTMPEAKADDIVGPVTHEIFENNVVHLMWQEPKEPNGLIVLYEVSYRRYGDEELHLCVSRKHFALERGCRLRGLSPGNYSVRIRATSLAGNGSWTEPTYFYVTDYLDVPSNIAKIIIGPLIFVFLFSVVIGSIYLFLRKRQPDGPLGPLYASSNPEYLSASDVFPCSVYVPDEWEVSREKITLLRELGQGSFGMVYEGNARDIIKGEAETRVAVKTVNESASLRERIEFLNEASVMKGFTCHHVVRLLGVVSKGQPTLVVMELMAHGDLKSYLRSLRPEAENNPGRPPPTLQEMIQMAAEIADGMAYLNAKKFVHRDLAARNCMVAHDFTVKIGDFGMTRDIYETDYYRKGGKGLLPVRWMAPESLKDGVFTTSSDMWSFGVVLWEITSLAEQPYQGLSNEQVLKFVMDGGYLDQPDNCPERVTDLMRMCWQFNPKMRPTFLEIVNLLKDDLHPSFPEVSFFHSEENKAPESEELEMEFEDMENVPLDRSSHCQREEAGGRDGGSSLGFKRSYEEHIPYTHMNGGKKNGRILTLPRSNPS
Epidermal growth factor receptor, sequence (P00533 whole entry): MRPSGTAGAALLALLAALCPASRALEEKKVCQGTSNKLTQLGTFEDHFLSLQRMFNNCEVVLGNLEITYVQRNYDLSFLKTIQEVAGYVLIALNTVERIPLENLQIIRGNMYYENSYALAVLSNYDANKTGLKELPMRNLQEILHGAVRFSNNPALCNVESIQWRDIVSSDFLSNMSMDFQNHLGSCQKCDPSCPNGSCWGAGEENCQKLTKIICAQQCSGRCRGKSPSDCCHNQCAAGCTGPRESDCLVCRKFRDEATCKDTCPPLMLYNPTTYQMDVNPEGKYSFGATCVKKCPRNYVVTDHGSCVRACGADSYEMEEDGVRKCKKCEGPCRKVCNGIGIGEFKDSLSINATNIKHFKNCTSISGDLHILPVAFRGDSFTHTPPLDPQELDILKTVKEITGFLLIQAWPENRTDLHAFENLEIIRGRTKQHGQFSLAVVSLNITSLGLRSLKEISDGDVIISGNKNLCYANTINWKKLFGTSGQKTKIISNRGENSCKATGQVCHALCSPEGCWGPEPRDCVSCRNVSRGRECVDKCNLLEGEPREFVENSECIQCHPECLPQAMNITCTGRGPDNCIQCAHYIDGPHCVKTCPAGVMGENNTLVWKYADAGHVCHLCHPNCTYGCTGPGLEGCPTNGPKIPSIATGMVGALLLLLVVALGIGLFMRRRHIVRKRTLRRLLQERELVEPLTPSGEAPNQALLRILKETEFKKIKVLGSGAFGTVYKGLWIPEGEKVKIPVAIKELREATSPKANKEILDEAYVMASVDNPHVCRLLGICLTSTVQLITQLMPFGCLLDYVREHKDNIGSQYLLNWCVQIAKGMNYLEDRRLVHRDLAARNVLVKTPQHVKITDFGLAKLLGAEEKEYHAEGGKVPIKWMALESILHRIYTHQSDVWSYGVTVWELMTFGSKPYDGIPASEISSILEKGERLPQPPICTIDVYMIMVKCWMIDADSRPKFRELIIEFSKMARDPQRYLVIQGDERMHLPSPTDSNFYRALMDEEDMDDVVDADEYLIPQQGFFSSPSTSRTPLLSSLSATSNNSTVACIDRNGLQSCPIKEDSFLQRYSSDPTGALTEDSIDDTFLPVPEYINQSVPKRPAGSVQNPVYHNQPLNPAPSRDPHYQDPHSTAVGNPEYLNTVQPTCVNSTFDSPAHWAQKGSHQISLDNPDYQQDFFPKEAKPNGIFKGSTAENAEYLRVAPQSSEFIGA
Cytochrome P450 2C9, sequence (P11712 whole entry): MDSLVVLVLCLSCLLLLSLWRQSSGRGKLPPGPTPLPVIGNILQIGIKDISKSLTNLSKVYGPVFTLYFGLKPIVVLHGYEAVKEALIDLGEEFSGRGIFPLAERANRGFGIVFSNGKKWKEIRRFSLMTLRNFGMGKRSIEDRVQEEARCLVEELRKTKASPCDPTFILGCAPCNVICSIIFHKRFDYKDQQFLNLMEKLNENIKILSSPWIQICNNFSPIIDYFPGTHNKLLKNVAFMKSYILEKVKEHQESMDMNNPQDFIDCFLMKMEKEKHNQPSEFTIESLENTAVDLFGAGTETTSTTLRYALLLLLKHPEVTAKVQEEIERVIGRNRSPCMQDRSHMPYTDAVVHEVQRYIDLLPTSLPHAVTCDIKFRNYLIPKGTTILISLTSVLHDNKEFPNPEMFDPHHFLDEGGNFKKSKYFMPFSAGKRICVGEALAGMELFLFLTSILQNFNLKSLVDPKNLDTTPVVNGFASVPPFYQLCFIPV

CCC1CN(C(=O)Nc2ccccc2)c2ccc(-c3ccc(OCC(C)(C)C(=O)O)nc3)cc2O1 (centres undefined)
AUC [1]: 46 µM·h | inhibition in vivo at 0.3 mg/kg (Mus musculus [2]): 73% | IC50 (Cytochrome P450 2C9): 0.5 µM | IC50 [3]: 0.073 µM | inhibition in vivo at 1 mg/kg (Mus musculus [4]): 100%

CCc1ccccc1NC(=O)N1C[C@@H](C)Oc2cc(-c3ccc([C@H]4CC[C@H](CC(=O)O)CC4)cc3)ccc21
fraction unbound [5]: < 0.005 | Activity (Mus musculus [6]): Active | IC50 [7]: > 10 µM | AUC [8]: 3.7 µM·h | AUC [9]: 41 µM·h | hepatocyte CLint [10]: 10 µL/min/1e6 cells | Cmax [11]: 3.3 µM | IC50 (Prostacyclin receptor): 1 µM | hepatocyte CLint [12]: 6.2 µL/min/1e6 cells | inhibition in vivo at 3 mg/kg (Mus musculus [13]): 87% | IC50 [14]: > 10 µM | fraction unbound [15]: < 0.005 | hepatocyte CLint [16]: 14 µL/min/1e6 cells | inhibition in vivo at 3 mg/kg (Mus musculus [17]): 93% | inhibition in vivo at 30 mg/kg (Mus musculus [18]): > 5% | half-life [19]: 6.2 h | IC50 [20]: > 10 µM | Cmax [21]: 5.7 µM | IC50 (Caspase-9): 5 µM | bioavailability [22]: 89% | half-life [23]: 3 h | CLH (Hepatocyte): 14 µL/min/1e6 cells | IC50 [24]: > 10 µM | IC50 (D(2) dopamine receptor): > 10 µM | IC50 (Cannabinoid receptor 1): > 10 µM | half-life [25]: 3 h | IC50 [26]: 0.064 µM | IC50 [3]: 0.044 µM | IC50 (Insulin receptor): 5.7 µM | bioavailability [27]: 75% | Cmax [28]: 9.1 µM | IC50 (Caspase-8): 6.8 µM | AUC [29]: 23 µM·h | hepatocyte CLint [30]: 16 µL/min/1e6 cells | AUC [31]: 64 µM·h | half-life [32]: 3 h | IC50 [33]: 7.5 µM | solubility [34]: 50 µM (≈ 25.6 µg/mL) | Papp [35]: 20.1 ×10⁻⁶ cm/s | Cmax [36]: 0.6 µM | IC50 [37]: > 10 µM

O=C(O)C[C@H]1CC[C@H](c2ccc(-c3ccc4c(c3)OCCN4C(=O)Nc3ccc(F)cc3C(F)(F)F)cc2)CC1
inhibition [38]: inactive | inhibition in vivo at 3 mg/kg (Mus musculus [17]): 59% | inhibition in vivo at 10 mg/kg (Mus musculus [39]): 91% | AUC [40]: 23 µM·h | IC50 [3]: 0.035 µM | IC50 [41]: 9.6 µM | solubility [42]: 100 µM (≈ 55.7 µg/mL) | Papp [35]: 23.9 ×10⁻⁶ cm/s
